Source: ChEMBL document CHEMBL1201862, “PubChem BioAssay data set” (2004)
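Tested at 5 concentrations; 48 h exposure; 96-well plates; endpoints linearly interpolated, else capped at highest concentration. GI50 marks 50% less growth.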 Calls of active or inactive are those of the source. No stated cut-off is given here; in the data, active = GI50 up to about 1.1 µM and inactive = higher.

Experiments:
Test in all cases: growth of human tumour cells (NCI), 48 h
[1] = tested on: SK-OV-3
[2] = tested on: T47D
[3] = tested on: UACC-62
[4] = tested on: CAKI-1
[5] = tested on: LOX IMVI
[6] = tested on: SW-620
[7] = tested on: SK-MEL-28
[8] = tested on: 786-0
[9] = tested on: SF-539
[10] = tested on: DMS-273
[11] = tested on: OVCAR-3
[12] = tested on: A549
[13] = tested on: Malme-3M
[14] = tested on: A498
[15] = tested on: ACHN
[16] = tested on: MOLT-4
[17] = tested on: Hs-578T
[18] = tested on: MDA-MB-231
[19] = tested on: COLO 205
[20] = tested on: SN12C

Measured: GI50

Oc1ccc(Cn2c(-c3ccc(O)cc3)nc3ccccc32)cc1
inactive: [1] > 100 µM | [2] > 100 µM | [3] > 100 µM | [4] > 100 µM | [5] > 100 µM | [6] > 100 µM | [7] > 100 µM | [8] > 100 µM | [9] > 100 µM | [10] > 100 µM | [11] > 100 µM | [12] > 100 µM | [13] > 100 µM | [14] > 100 µM | [15] > 100 µM | [16] > 100 µM | [17] > 100 µM | [18] > 100 µM | [19] > 100 µM | [20] > 100 µM
